Laboratory results: publication PMC12090182, “Repurposing of the RIPK1-Selective Benzo[1,4]oxazepin-4-one Scaffold for the Development of a Type III LIMK1/2 Inhibitor” (ACS Chemical Biology, 2025)

Columns and labels:
Assay in all cases: scanMAX KINOMEscan (Eurofins)
Type in all cases: binding
FYN = FYN (Homo sapiens, UniProt P06241); details: 1000 nM, read-out: Percent Control
Text: (§1) Supplement cb5c00097_si_002.xlsx, sheet "Table S6 (Eurofins Selectivity)" | column: Percent Control

LOK = LOK (Homo sapiens, UniProt O94804); details: 1000 nM, read-out: Percent Control
Text: as §1

CSNK2A2 = CSNK2A2 (Homo sapiens, UniProt P19784); details: 1000 nM, read-out: Percent Control
Text: as §1

CDK5 = CDK5 (Homo sapiens, UniProt Q00535); details: read-out: Percent Control
Text: as §1

PRKCI = PRKCI (Homo sapiens, UniProt P41743); details: 1000 nM, read-out: Percent Control
Text: as §1

BIKE = BIKE (Homo sapiens, UniProt Q9NSY1); details: 1000 nM, read-out: Percent Control
Text: as §1

CDC2L2 = CDC2L2 (Homo sapiens, UniProt Q9UQ88); details: 1000 nM, read-out: Percent Control
Text: as §1

IKK-beta = IKK-beta (Homo sapiens, UniProt O14920); details: read-out: Percent Control
Text: as §1

MLCK = MLCK (Homo sapiens, UniProt Q32MK0); details: 1000 nM, read-out: Percent Control
Text: as §1

CDC2L5 = CDC2L5 (Homo sapiens, UniProt Q14004); details: read-out: Percent Control
Text: as §1

DYRK2 = DYRK2 (Homo sapiens, UniProt Q92630); details: read-out: Percent Control
Text: as §1

ERK5 = ERK5 (Homo sapiens, UniProt Q13164); details: 1000 nM, read-out: Percent Control
Text: as §1

MAP3K15 = MAP3K15 (Homo sapiens, UniProt Q6ZN16); details: compound concentration 100 nM; Entrez MAP3K15; read-out: Percent Control
Text: as §1

IKK-epsilon = IKK-epsilon (Homo sapiens, UniProt Q14164); details: 1000 nM, read-out: Percent Control
Text: as §1

LKB1 = LKB1 (Homo sapiens, UniProt Q15831); details: 1000 nM, read-out: Percent Control
Text: as §1

NEK10 = NEK10 (Homo sapiens, UniProt Q6ZWH5); details: 1000 nM, read-out: Percent Control
Text: as §1

[1] = target: TYK2(JH1domain-catalytic) (Homo sapiens, UniProt P29597); details: 1000 nM, read-out: Percent Control
Text: as §1

LZK = LZK (Homo sapiens, UniProt O43283); details: 1000 nM, read-out: Percent Control
Text: as §1

VEGFR2 = VEGFR2 (Homo sapiens, UniProt P35968); details: 1000 nM, read-out: Percent Control
Text: as §1

ULK1 = ULK1 (Homo sapiens, UniProt O75385); details: compound concentration 100 nM; Entrez ULK1; read-out: Percent Control
Text: as §1

FLT3-autoinhibited = FLT3-autoinhibited (Homo sapiens, UniProt P36888); details: 1000 nM, read-out: Percent Control
Text: as §1

PRKR = PRKR (Homo sapiens, UniProt P19525); details: compound concentration 100 nM; Entrez EIF2AK2; read-out: Percent Control
Text: as §1

MARK1 = MARK1 (Homo sapiens, UniProt Q9P0L2); details: compound concentration 100 nM; Entrez MARK1; read-out: Percent Control
Text: as §1

IRAK4 = IRAK4 (Homo sapiens, UniProt Q9NWZ3); details: compound concentration 100 nM; Entrez IRAK4; read-out: Percent Control
Text: as §1

[2] = target: RSK4(Kin.Dom.2-C-terminal) (Homo sapiens, UniProt Q9UK32); details: 1000 nM, read-out: Percent Control
Text: as §1

[3] = target: RSK4(Kin.Dom.1-N-terminal) (Homo sapiens, UniProt Q9UK32); details: compound concentration 100 nM; Entrez RPS6KA6; read-out: Percent Control
Text: as §1

CDK11 = CDK11 (Homo sapiens, UniProt Q9BWU1); details: read-out: Percent Control
Text: as §1

TIE2 = TIE2 (Homo sapiens, UniProt Q02763); details: compound concentration 100 nM; Entrez TEK; read-out: Percent Control
Text: as §1

PDGFRA = PDGFRA (Homo sapiens, UniProt P16234); details: 1000 nM, read-out: Percent Control
Text: as §1

MLK3 = MLK3 (Homo sapiens, UniProt Q16584); details: 1000 nM, read-out: Percent Control
Text: as §1

NEK3 = NEK3 (Homo sapiens, UniProt P51956); details: 1000 nM, read-out: Percent Control
Text: as §1

ACVR1B = ACVR1B (Homo sapiens, UniProt P36896); details: 1000 nM, read-out: Percent Control
Text: as §1

KIT-autoinhibited = KIT-autoinhibited (Homo sapiens, UniProt P10721); details: 1000 nM, read-out: Percent Control
Text: as §1

[4] = target: RPS6KA5(Kin.Dom.1-N-terminal) (Homo sapiens, UniProt O75582); details: compound concentration 100 nM; Entrez RPS6KA5; read-out: Percent Control
Text: as §1

MAP4K5 = MAP4K5 (Homo sapiens, UniProt Q9Y4K4); details: 1000 nM, read-out: Percent Control
Text: as §1

BMPR1B = BMPR1B (Homo sapiens, UniProt O00238); details: read-out: Percent Control
Text: as §1

Chain of CDK11 (Q9BWU1 whole entry): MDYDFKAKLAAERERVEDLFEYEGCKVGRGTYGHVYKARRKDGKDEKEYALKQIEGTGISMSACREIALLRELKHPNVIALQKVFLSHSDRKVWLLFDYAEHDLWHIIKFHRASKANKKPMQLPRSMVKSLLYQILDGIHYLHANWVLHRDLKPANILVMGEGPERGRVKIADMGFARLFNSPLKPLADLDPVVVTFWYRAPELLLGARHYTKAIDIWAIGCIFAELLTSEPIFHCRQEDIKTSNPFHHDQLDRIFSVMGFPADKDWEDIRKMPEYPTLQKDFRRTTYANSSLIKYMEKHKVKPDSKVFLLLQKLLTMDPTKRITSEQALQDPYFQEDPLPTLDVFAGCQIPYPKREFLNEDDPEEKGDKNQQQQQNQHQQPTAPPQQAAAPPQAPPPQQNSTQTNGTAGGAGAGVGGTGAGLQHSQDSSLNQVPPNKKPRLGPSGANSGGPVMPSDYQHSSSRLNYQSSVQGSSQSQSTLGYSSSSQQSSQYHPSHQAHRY
Chain of IKK-beta (O14920 whole entry): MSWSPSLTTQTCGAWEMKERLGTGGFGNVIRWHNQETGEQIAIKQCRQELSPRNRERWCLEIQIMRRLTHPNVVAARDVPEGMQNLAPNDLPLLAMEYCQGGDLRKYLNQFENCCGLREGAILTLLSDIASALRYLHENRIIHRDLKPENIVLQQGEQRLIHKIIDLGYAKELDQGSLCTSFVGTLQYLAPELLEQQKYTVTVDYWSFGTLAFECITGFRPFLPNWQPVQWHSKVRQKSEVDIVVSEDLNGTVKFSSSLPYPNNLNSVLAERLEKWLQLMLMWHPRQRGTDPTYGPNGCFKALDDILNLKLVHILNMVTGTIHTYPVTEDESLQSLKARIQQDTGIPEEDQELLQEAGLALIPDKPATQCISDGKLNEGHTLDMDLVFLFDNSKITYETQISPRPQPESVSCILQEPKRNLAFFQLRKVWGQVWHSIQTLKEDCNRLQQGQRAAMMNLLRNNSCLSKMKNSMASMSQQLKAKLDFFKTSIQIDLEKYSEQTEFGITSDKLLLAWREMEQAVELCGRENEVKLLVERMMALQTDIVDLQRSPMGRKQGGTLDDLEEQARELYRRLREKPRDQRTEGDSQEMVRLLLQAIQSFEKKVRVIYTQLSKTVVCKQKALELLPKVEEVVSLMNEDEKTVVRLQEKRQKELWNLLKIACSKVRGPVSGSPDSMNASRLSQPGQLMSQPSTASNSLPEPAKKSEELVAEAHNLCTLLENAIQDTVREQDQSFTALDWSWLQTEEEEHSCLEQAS
Chain of CDK5 (Q15078 whole entry): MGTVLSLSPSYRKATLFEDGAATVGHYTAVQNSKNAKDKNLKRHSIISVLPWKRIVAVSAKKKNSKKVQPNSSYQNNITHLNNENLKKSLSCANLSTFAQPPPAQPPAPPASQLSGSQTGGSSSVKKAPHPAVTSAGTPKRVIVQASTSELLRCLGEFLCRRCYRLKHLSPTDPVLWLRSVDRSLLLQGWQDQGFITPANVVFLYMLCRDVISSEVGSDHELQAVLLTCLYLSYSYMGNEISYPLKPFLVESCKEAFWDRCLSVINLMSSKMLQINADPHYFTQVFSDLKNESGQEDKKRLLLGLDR
Chain of CDK5 (Q00535 whole entry): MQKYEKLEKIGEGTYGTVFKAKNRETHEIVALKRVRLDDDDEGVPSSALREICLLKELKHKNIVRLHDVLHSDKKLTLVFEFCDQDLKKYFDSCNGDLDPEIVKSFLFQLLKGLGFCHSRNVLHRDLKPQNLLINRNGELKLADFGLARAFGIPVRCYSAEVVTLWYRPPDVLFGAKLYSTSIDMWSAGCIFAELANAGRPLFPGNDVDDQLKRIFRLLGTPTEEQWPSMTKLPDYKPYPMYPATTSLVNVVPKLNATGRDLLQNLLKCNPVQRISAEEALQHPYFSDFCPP
Chain of DYRK2 (Q92630 whole entry): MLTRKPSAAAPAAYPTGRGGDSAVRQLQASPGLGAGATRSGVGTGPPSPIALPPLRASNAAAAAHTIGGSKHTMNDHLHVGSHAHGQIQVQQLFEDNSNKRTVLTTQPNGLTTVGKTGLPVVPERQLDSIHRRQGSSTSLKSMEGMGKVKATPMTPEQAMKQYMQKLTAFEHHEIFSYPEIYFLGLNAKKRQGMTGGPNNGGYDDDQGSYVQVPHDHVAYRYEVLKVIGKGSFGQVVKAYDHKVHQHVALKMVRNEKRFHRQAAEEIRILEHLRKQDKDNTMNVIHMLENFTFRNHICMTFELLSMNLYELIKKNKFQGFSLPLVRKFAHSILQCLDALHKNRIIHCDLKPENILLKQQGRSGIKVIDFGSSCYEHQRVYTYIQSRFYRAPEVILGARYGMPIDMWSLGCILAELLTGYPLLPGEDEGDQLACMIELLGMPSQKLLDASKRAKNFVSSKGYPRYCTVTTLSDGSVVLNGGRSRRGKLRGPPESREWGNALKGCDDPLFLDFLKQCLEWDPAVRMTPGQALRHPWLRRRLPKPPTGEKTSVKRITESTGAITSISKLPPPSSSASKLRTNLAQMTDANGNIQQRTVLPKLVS
Chain of CDC2L5 (Q14004 whole entry): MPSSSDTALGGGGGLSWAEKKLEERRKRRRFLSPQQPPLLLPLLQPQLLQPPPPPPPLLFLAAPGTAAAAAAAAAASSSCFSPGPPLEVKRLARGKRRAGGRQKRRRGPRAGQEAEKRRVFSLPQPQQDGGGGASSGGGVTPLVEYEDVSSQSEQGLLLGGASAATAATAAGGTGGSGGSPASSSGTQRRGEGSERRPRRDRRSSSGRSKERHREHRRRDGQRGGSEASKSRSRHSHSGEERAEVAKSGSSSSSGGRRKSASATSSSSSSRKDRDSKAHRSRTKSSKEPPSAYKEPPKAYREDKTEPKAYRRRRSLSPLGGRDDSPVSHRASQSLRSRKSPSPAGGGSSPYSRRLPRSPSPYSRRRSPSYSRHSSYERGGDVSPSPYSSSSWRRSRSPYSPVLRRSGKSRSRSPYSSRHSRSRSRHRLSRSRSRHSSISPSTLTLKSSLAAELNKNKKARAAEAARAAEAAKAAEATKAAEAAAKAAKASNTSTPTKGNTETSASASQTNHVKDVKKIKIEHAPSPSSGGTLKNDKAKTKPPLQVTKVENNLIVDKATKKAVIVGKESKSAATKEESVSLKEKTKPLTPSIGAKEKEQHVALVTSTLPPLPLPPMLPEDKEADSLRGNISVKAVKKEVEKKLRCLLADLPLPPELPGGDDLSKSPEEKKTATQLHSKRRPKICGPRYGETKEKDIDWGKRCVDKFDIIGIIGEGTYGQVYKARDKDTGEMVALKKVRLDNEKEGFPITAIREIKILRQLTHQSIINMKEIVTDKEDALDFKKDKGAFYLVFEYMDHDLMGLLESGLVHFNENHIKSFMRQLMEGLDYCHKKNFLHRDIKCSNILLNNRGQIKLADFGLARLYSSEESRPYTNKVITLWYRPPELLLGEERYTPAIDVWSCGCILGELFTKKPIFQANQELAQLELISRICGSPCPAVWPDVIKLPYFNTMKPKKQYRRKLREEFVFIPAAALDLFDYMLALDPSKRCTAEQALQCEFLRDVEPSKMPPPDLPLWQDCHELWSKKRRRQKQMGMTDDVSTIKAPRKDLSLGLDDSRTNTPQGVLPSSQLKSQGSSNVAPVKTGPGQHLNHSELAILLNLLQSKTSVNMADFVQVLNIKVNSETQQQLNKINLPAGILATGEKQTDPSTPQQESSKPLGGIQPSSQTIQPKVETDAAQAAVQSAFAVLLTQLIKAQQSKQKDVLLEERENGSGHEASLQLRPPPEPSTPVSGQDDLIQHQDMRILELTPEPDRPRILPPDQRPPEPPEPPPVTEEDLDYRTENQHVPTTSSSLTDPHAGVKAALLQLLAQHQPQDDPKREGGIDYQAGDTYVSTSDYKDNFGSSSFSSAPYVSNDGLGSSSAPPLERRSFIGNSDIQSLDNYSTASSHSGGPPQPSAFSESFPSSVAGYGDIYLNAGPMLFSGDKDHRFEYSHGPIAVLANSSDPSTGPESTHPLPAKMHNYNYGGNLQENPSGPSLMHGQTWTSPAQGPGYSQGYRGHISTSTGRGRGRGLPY
Chain of BMPR1B (O00238 14-502): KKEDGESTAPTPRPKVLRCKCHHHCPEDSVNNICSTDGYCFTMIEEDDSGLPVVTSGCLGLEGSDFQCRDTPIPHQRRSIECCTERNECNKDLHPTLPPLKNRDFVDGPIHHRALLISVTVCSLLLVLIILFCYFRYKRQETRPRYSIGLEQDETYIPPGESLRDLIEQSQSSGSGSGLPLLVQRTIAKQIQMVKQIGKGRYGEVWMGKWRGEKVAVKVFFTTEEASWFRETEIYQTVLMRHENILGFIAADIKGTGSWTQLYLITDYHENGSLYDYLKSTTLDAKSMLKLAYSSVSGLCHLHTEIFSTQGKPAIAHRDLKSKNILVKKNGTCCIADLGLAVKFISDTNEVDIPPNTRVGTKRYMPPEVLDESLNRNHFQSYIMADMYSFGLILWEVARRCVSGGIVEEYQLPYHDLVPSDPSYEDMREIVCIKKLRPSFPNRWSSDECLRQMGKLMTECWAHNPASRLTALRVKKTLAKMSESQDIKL
Chain of RSK4(Kin.Dom.1-N-terminal) (Q9UK32 73-400): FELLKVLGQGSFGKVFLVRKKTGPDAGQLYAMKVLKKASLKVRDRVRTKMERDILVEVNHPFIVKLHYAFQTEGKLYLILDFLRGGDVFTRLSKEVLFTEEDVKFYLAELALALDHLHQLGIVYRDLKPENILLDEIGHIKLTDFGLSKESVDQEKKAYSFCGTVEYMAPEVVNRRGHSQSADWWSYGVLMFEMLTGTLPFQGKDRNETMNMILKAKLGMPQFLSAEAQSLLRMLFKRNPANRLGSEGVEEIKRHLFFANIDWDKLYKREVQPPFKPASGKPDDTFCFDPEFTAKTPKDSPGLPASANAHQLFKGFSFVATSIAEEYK

CN1C(=O)[C@@H](N2CCc3c(nn(Cc4ccccc4)c3C(N)=O)C2=O)COc2cc(Cl)ccc21 [Compound 10, (S)-2-benzyl-6-(8-chloro-5-methyl-4-oxo-2,3,4,5-tetrahydrobenzo[b][1,4]oxazepin-3-yl)-7-oxo-4,5,6,7-tetrahydro-2H-pyrazolo[3,4-c]pyridine-3-carboxamide]
remaining binding at 1 µM (FYN): 77%
remaining binding at 1 µM (LOK): 97%
remaining binding at 1 µM (CSNK2A2): 88%
remaining binding at 1 µM (CDK5; 1000 nM): 99%
remaining binding at 0.1 µM (CDK5; compound concentration 100 nM, Entrez CDK5): 78%
remaining binding at 1 µM (PRKCI): 80%
remaining binding at 1 µM (BIKE): 82%
remaining binding at 1 µM (CDC2L2): 86%
remaining binding at 1 µM (IKK-beta; 1000 nM): 100%
remaining binding at 0.1 µM (IKK-beta; compound concentration 100 nM, Entrez IKBKB): 97%
remaining binding at 1 µM (MLCK): 93%
remaining binding at 1 µM (CDC2L5; 1000 nM): 100%
remaining binding at 0.1 µM (CDC2L5; compound concentration 100 nM, Entrez CDK13): 100%
remaining binding at 1 µM (DYRK2; 1000 nM): 100%
remaining binding at 0.1 µM (DYRK2; compound concentration 100 nM, Entrez DYRK2): 100%
remaining binding at 1 µM (ERK5): 86%
remaining binding at 0.1 µM (MAP3K15): 71%
remaining binding at 1 µM (IKK-epsilon): 75%
remaining binding at 1 µM (LKB1): 88%
remaining binding at 1 µM (NEK10): 94%
remaining binding at 1 µM [1]: 74%
remaining binding at 1 µM (LZK): 67%
remaining binding at 1 µM (VEGFR2): 92%
remaining binding at 0.1 µM (ULK1): 100%
remaining binding at 1 µM (FLT3-autoinhibited): 94%
remaining binding at 0.1 µM (PRKR): 71%
remaining binding at 0.1 µM (MARK1): 76%
remaining binding at 0.1 µM (IRAK4): 100%
remaining binding at 1 µM [2]: 93%
remaining binding at 0.1 µM [3]: 100%
remaining binding at 1 µM (CDK11; 1000 nM): 100%
remaining binding at 0.1 µM (CDK11; compound concentration 100 nM, Entrez CDK19): 100%
remaining binding at 0.1 µM (TIE2): 95%
remaining binding at 1 µM (PDGFRA): 87%
remaining binding at 1 µM (MLK3): 92%
remaining binding at 1 µM (NEK3): 86%
remaining binding at 1 µM (ACVR1B): 86%
remaining binding at 1 µM (KIT-autoinhibited): 97%
remaining binding at 0.1 µM [4]: 92%
remaining binding at 1 µM (MAP4K5): 88%
remaining binding at 1 µM (BMPR1B; 1000 nM): 100%
remaining binding at 0.1 µM (BMPR1B; compound concentration 100 nM, Entrez BMPR1B): 88%
